Test results: patent US12435044B2, “Pyridazinone herbicides and pyridazinone intermediates used to prepare a herbicide” (FMC Corporation, priority 2018, dated 2025)

How the values were obtained:
Type in all cases: in vivo
[1] = test system: rice (ORYSS; Oryza sativa, cv. M202); test: Test M postemergence, mixtures of Cpd. No. 20 with isoxadifen-ethyl, cloquintocet-mexyl or Mefenpyr-diethyl; conditions: approx. 14 d, second component alone 31 g a.i./ha
Source text: (§1) This test evaluated the effect of mixtures of Cpd. No. 20 with isoxadifen-ethyl, or cloquintocet-mexyl, or Mefenpyr-diethyl on several plant species. Seeds of plant species selected from corn (ZEAMD; Zea mays, cv. ‘Pioneer 1184’), soybean (GLXMA; Glycine max, cv. Pioneer 35T58), winter wheat (TRZAW; Triticum aetivum, cv. Arezzo), winter barley (HORVW; Hordeum vulgare, cv. Boone), rice (ORYSS; Oryza sativa, cv. M202), and giant foxtail (SETFA; Setaria faberi) were planted in pots containing Redi-Earth® planting medium (Scotts Company, 14111 Scottslawn Road, Marysville, Ohio 43041) comprising spaghnum peat moss, vermiculite, wetting agent and starter nutrients and treated postemergence using test chemicals formulated in a non-phytotoxic solvent mixture which included a surfactant. Plants ranged in height from 7 to 10 cm and were in the one- to two-leaf stage for the postemergence treatment. Treated plants and untreated controls were maintained in a greenhouse for approximately 14 d, after which time all treated plants were compared to untreated controls and visually evaluated for injury. Plant response ratings, summarized in Tables M1 to M3, are based on a 0 to 100 scale where 0 is no effect and 100 is complete control. A dash (-) response means no test result. Test results are presented as a mean of 3 reps.

[2] = test system: giant foxtail (SETFA; Setaria faberi); test: as above; conditions: approx. 14 d, second component alone 31 g a.i./ha
Source text: as §1

[3] = test system: winter barley (HORVW; Hordeum vulgare, cv. Boone); test: as above; conditions: approx. 14 d, second component alone 31 g a.i./ha
Source text: as §1

[4] = test system: winter wheat (TRZAW; Triticum aetivum, cv. Arezzo); test: as above; conditions: approx. 14 d, second component alone 31 g a.i./ha
Source text: as §1

[5] = test system: corn (ZEAMD; Zea mays, cv. ‘Pioneer 1184’); test: as above; conditions: approx. 14 d, second component alone 31 g a.i./ha
Source text: as §1

[6] = test system: soybean (GLXMA; Glycine max, cv. Pioneer 35T58); test: as above; conditions: approx. 14 d, second component alone 31 g a.i./ha
Source text: as §1

[7] = test system: rice (ORYSS; Oryza sativa, cv. M202); test: Test of Tables L1 to L3, postemergence, mixtures of Cpd. No. 20 with benoxacor, isoxadifen-ethyl, or cloquintocet-mexyl
Source text: as §1, with “with benoxacor,” for “with”, “or cloquintocet-mexyl” for “or cloquintocet-mexyl, or Mefenpyr-diethyl”, “Arezzo),” for “Arezzo), winter barley (HORVW; Hordeum vulgare, cv. Boone),”, “Tables L1” for “Tables M1”, “to L3,” for “to M3,”, “of 4” for “of 3”

[8] = test system: giant foxtail (SETFA; Setaria faberi); test: as above
Source text: as §1, with “with benoxacor,” for “with”, “or cloquintocet-mexyl” for “or cloquintocet-mexyl, or Mefenpyr-diethyl”, “Arezzo),” for “Arezzo), winter barley (HORVW; Hordeum vulgare, cv. Boone),”, “Tables L1” for “Tables M1”, “to L3,” for “to M3,”, “of 4” for “of 3”

[9] = test system: winter wheat (TRZAW; Triticum aetivum, cv. Arezzo); test: as above
Source text: as §1, with “with benoxacor,” for “with”, “or cloquintocet-mexyl” for “or cloquintocet-mexyl, or Mefenpyr-diethyl”, “Arezzo),” for “Arezzo), winter barley (HORVW; Hordeum vulgare, cv. Boone),”, “Tables L1” for “Tables M1”, “to L3,” for “to M3,”, “of 4” for “of 3”

[10] = test system: corn (ZEAMD; Zea mays, cv. ‘Pioneer 1184’); test: as above
Source text: as §1, with “with benoxacor,” for “with”, “or cloquintocet-mexyl” for “or cloquintocet-mexyl, or Mefenpyr-diethyl”, “Arezzo),” for “Arezzo), winter barley (HORVW; Hordeum vulgare, cv. Boone),”, “Tables L1” for “Tables M1”, “to L3,” for “to M3,”, “of 4” for “of 3”

[11] = test system: soybean (GLXMA; Glycine max, cv. Pioneer 35T58); test: as above
Source text: as §1, with “with benoxacor,” for “with”, “or cloquintocet-mexyl” for “or cloquintocet-mexyl, or Mefenpyr-diethyl”, “Arezzo),” for “Arezzo), winter barley (HORVW; Hordeum vulgare, cv. Boone),”, “Tables L1” for “Tables M1”, “to L3,” for “to M3,”, “of 4” for “of 3”

[12] = test system: common waterhemp (AMATU; Amaranthus rudis); test: Test H postemergence, mixtures of Cpd. No. 20 with atrazine or glyphosate
Source text: (§2) This test evaluated the effect of mixtures of Cpd. No. 20 with atrazine or glyphosate on several plant species. Seeds of plant species selected from corn (ZEAMD; Zea mays, cv. ‘Pioneer 1184’), soybean (GLXMA; Glycine max, cv. Pioneer 35T58), giant foxtail (SETFA; Setaria faberi), Surinamgrass (BRADC; Brachiaria decumbens), fall panicum (PANDI; Panicum dichotomiflorum), velvetleaf (ABUTH; Abutilon threophrasti), mare's tail (ERICA; Conyza canadensis), barnyardgrass (ECHCG; Echinochloa crus-galli), large crabgrass (DIGSA; Digitaria sanguinalis), palmer amaranth (AMAPA; Amaranthus palmeri), common waterhemp (AMATU; Amaranthus rudis), E. black nightshade (SOLPT; Solanum ptycanthum), and common ragweed (AMBEL; Ambrosia artemisiifolia) were planted in pots containing Redi-Earth® planting medium (Scotts Company, 14111 Scottslawn Road, Marysville, Ohio 43041) comprising spaghnum peat moss, vermiculite, wetting agent and starter nutrients and treated postemergence using test chemicals formulated in a non-phytotoxic solvent mixture which included a surfactant. Plants ranged in height from 2 to 10 cm and were in the one- to two-leaf stage for the postemergence treatment. Treated plants and untreated controls were maintained in a greenhouse for approximately 14 d, after which time all treated plants were compared to untreated controls and visually evaluated for injury. Plant response ratings, summarized in Tables H1 & H2, are based on a 0 to 100 scale where 0 is no effect and 100 is complete control. A dash (-) response means no test result. Test results are presented as a mean of 4 reps.

[13] = test system: velvetleaf (ABUTH; Abutilon threophrasti); test: as above
Source text: as §2

[14] = test system: common ragweed (AMBEL; Ambrosia artemisiifolia); test: as above
Source text: as §2

[15] = test system: giant foxtail (SETFA; Setaria faberi); test: as above
Source text: as §2

[16] = test system: E. black nightshade (SOLPT; Solanum ptycanthum); test: as above
Source text: as §2

[17] = test system: barnyardgrass (ECHCG; Echinochloa crus-galli); test: as above
Source text: as §2

[18] = test system: fall panicum (PANDI; Panicum dichotomiflorum); test: as above
Source text: as §2

[19] = test system: palmer amaranth (AMAPA; Amaranthus palmeri); test: as above
Source text: as §2

[20] = test system: Surinamgrass (BRADC; Brachiaria decumbens); test: as above
Source text: as §2

[21] = test system: large crabgrass (DIGSA; Digitaria sanguinalis); test: as above
Source text: as §2

[22] = test system: mare's tail (ERICA; Conyza canadensis); test: as above
Source text: as §2

[23] = test system: corn (ZEAMD; Zea mays, cv. ‘Pioneer 1184’); test: as above
Source text: as §2

[24] = test system: soybean (GLXMA; Glycine max, cv. Pioneer 35T58); test: as above
Source text: as §2

[25] = approx. 14 d, Cloquintocet-mexyl alone 31 g a.i./ha

CCCCCC(C)OC(=O)COc1ccc(Cl)c2cccnc12 (stereo not drawn) [Cloquintocet-mexyl, cloquintocet-mexyl, reference compound]
Plant response rating (0 to 100 scale) ORYSS [1]: 0
Plant response rating (0 to 100 scale) SETFA [2]: 0
Plant response rating (0 to 100 scale) HORVW [3]: 0
Plant response rating (0 to 100 scale) TRZAW [4]: 0
Plant response rating (0 to 100 scale) ZEAMD [5]: 0
Plant response rating (0 to 100 scale) GLXMA [6]: 0
Plant response rating (0 to 100 scale) ORYSS [7, 25]: 0
Plant response rating (0 to 100 scale) SETFA [8, 25]: 0
Plant response rating (0 to 100 scale) TRZAW [9, 25]: 0
Plant response rating (0 to 100 scale) ZEAMD [10, 25]: 0
Plant response rating (0 to 100 scale) GLXMA [11, 25]: 0

CCOC(=O)C1=NN(c2ccc(Cl)cc2Cl)C(C)(C(=O)OCC)C1 (stereo not drawn) [Mefenpyr-diethyl, reference compound]
Plant response rating (0 to 100 scale) ORYSS [1]: 0
Plant response rating (0 to 100 scale) SETFA [2]: 0
Plant response rating (0 to 100 scale) HORVW [3]: 0
Plant response rating (0 to 100 scale) TRZAW [4]: 0
Plant response rating (0 to 100 scale) ZEAMD [5]: 0
Plant response rating (0 to 100 scale) GLXMA [6]: 0

O=C(O)CNCP(=O)(O)O [Glyphosate, glyphosate]
Observed result (plant response rating), AMATU ([12]; applied alone at 62 g a.i./ha): 11
Observed result (plant response rating), AMATU ([12]; applied alone at 125 g a.i./ha): 25
Observed result (plant response rating), ABUTH ([13]; applied alone at 62 g a.i./ha): 0
Observed result (plant response rating), ABUTH ([13]; applied alone at 125 g a.i./ha): 15
Observed result (plant response rating), AMBEL ([14]; applied alone at 62 g a.i./ha): 68
Observed result (plant response rating), AMBEL ([14]; applied alone at 125 g a.i./ha): 84
Observed result (plant response rating), SETFA ([15]; applied alone at 62 g a.i./ha): 74
Observed result (plant response rating), SETFA ([15]; applied alone at 125 g a.i./ha): 75
Observed result (plant response rating), SOLPT ([16]; applied alone at 62 g a.i./ha): 43
Observed result (plant response rating), SOLPT ([16]; applied alone at 125 g a.i./ha): 51
Observed result (plant response rating), ECHCG ([17]; applied alone at 62 g a.i./ha): 6
Observed result (plant response rating), ECHCG ([17]; applied alone at 125 g a.i./ha): 31
Observed result (plant response rating), PANDI ([18]; applied alone at 62 g a.i./ha): 28
Observed result (plant response rating), PANDI ([18]; applied alone at 125 g a.i./ha): 51
Observed result (plant response rating), AMAPA ([19]; applied alone at 62 g a.i./ha): 43
Observed result (plant response rating), AMAPA ([19]; applied alone at 125 g a.i./ha): 23
Observed result (plant response rating), BRADC ([20]; applied alone at 62 g a.i./ha): 68
Observed result (plant response rating), BRADC ([20]; applied alone at 125 g a.i./ha): 69
Observed result (plant response rating), DIGSA ([21]; applied alone at 62 g a.i./ha): 86
Observed result (plant response rating), DIGSA ([21]; applied alone at 125 g a.i./ha): 90
Observed result (plant response rating), ERICA ([22]; applied alone at 62 g a.i./ha): 0
Observed result (plant response rating), ERICA ([22]; applied alone at 125 g a.i./ha): 0
Observed result (plant response rating), ZEAMD ([23]; applied alone at 62 g a.i./ha): 68
Observed result (plant response rating), ZEAMD ([23]; applied alone at 125 g a.i./ha): 74
Observed result (plant response rating), GLXMA ([24]; applied alone at 62 g a.i./ha): 10
Observed result (plant response rating), GLXMA ([24]; applied alone at 125 g a.i./ha): 25

CCOC(=O)C1=NOC(c2ccccc2)(c2ccccc2)C1 [Isoxadifen-ethyl, isoxadifen-ethyl, reference compound]
Plant response rating (0 to 100 scale) ORYSS [1]: 0
Plant response rating (0 to 100 scale) SETFA [2]: 0
Plant response rating (0 to 100 scale) HORVW [3]: 0
Plant response rating (0 to 100 scale) TRZAW [4]: 0
Plant response rating (0 to 100 scale) ZEAMD [5]: 0
Plant response rating (0 to 100 scale) GLXMA [6]: 0
ORYSS plant response rating, 0 to 100 scale ([7]; 31 g a.i./ha): 8
SETFA plant response rating, 0 to 100 scale ([8]; 31 g a.i./ha): 0
TRZAW plant response rating, 0 to 100 scale ([9]; 31 g a.i./ha): 0
ZEAMD plant response rating, 0 to 100 scale ([10]; 31 g a.i./ha): 0
GLXMA plant response rating, 0 to 100 scale ([11]; 31 g a.i./ha): 10
